# Data from patent publication US20120094963A1, “TARGETING PRODRUGS AND COMPOSITIONS FOR THE TREATMENT OF GASTROINTESTINAL DISEASES” (of Queen Elizabeth near Dublin, priority 2008, published 2012).
# Values joined by “and” are separate entries in the source; they are usually repeats but may differ in a detail not shown here. Identical values can stand only once. Like-named read-outs stand apart in the source and are kept apart here.
# Experiments:
# [1] = tested on: Clostridium perfringens; conditions: anaerobic, 37° C.; for Celecoxib prodrug concentration: C. perfringens in BHI
# [2] = BHI media without bacteria
# [3] = tested on: intestinal polyps; conditions: 100 ppm in the diet; min mice; cited from earlier work
# [4] = long-term (33 months) high-dose, 400 and 800 mg daily; cited from earlier work
# [5] = tested on: small intestinal polyps; conditions: 50 mg/kg qd p.o.; APCmin mice; cited from earlier work
# [6] = cited from earlier work; for risk of heart attack: VIGOR study patients
# [7] = APPROVe; beginning after 18 months of therapy; cited from earlier work
structure (smiles),measurement,setting,value
"Cc1ccc(-c2cc(C(F)(F)F)nn2-c2ccc(S(=O)(=O)NC(=O)CCc3ccccc3/N=N/c3ccc(O)c(C(=O)O)c3)cc2)cc1 [PC1, 2-Hydroxy-5-(2-3{-oxo-3[4-(5-p-tolyl-3-trifluoromethyl-pyrazol-1-yl)-benzenesulfonylamino]-propyl}-phenylazo)-benzoic acid]",Celecoxib prodrug concentration,[1]; 0 hours,15.59 µM and 14.97 µM
same,Celecoxib prodrug concentration,[1]; 8 hours,0.00 µM
same,Celecoxib prodrug concentration,[1]; 24 hours,0.00 µM
same,Azoreductase activity of Clostridium perfringens towards the prodrug,[1],Azoreductase activity was observed
same,Celecoxib prodrug in BHI,[2]; 0 hours,16.70 µM
same,Celecoxib prodrug in BHI,[2]; 2 hours,18.40 µM
same,Celecoxib prodrug in BHI,[2]; 4 hours,17.14 µM
same,Celecoxib prodrug in BHI,[2]; 6 hours,15.29 µM
same,Celecoxib prodrug in BHI,[2]; 8 hours,15.15 µM
same,Celecoxib prodrug in BHI,[2]; 24 hours,16.99 µM
CC(C)c1c(C(=O)Nc2ccccc2)c(-c2ccccc2)c(-c2ccc(F)cc2)n1CC[C@@H](O)C[C@@H](O)CC(=O)O [atorvastatin],intestinal polyp formation,[3],significantly (P<0.002) suppressed intestinal polyp formation
Cc1ccc(-c2cc(C(F)(F)F)nn2-c2ccc(S(N)(=O)=O)cc2)cc1 [celecoxib],cardiovascular risk,[4],increased cardiovascular risk compared with placebo
C#Cc1cccc(Nc2ncnc3cc(OCCOC)c(OCCOC)cc23)c1 [erlotinib],inhibition in total polyp number,[5],57%
same,reduction in the number of 1- to 2-mm-sized polyps,[5],46%
same,reduction in the number of <1-mm-sized polyps,[5],43%
same,reduction in the number of large-sized (>2 mm) polyps,[5],96%
COc1ccc2cc([C@H](C)C(=O)O)ccc2c1 [naproxen],risk of heart attack,[6],0.1%
CS(=O)(=O)c1ccc(C2=C(c3ccccc3)C(=O)OC2)cc1 [rofecoxib],risk of adverse thrombotic cardiovascular events,[7],increased relative risk of adverse thrombotic cardiovascular events
same,risk of heart attack,[6],0.4%
same,RR of heart attack,"[6]; VIGOR study, naproxen patients compared with rofecoxib patients",0.25
